Measurements from paper PMC7854751, “Estimation of radiation dose from ingested tritium in humans by administration of deuterium-labelled compounds and food” (Scientific Reports, 2021).
“And” between values parts separate entries of the source, which are not always exact repeats. Equal values may be shown once. Read-outs that look alike come from different tables or passages of the source. Marks after values point to notes of the source that are not given here.

How the values were obtained:
[1] = D/H ratios in urine after oral administration of D2O, HDO metabolic model fit; type: in vivo, human; settings: for mean half-life for the FWD compartment of the HDO models: mean and standard deviation; for Rr, recovery ratio to the administered deuterium / k1, transfer rate from OBD compartment to FWD compartment / k2, transfer rate from FWD compartment to OBD compartment / ka, transfer rate from DT compartment to FWD compartment / ke, excretion rate from FWD compartment: once orally
Experimental: (§1) The total number of volunteers was 42, although some dropped out of the experiment, for various reasons. The data from these volunteers were eliminated. This study lasted 4 years; administration experiments were conducted from September to January, and each volunteer participated in one of the 4 years. […]
(§2) Urine and breath samples were periodically collected from days − 7 to 119, where the first day of the administration was defined as day 0. Urine samples were collected daily, when the volunteers rose in the morning, until day 28, then every two or three days until day 119. Additional samples were collected frequently, after administration. Urine samples were collected at every urination until bedtime, on days of administration. Breath samples were collected immediately prior to the administration, every 20 min from 12:30 to 17:10, and then hourly from 18:00 until bedtime.
(§3) Urine was distilled, and the condensed water was collected for the measurement of D/H ratio, using a mass spectrometer (Iso Prime 100; Elementar, Langenselbold, Germany). Breath samples were collected using an airtight bag. The samples were analysed within 3 days. After purifying the CO2 in the breath using a gas chromatograph (MAT GC; Thermo Electron, Waltham, MA, USA), the ^13C/^12C ratio was measured using a mass spectrometer (Dalta V Advantage; Thermo Electron, Waltham, MA, USA).
(§4) The increments were calculated of D/H and ^13C/^12C ratios above the background values measured for the samples before administration. The ratios were normalised to the same dosage (1 g D or ^13C per 70 kg body weight). When the D/H or ^13C/^12C ratios were below the limits (90% upper confidence limits of the background fluctuation), to cut off the data and any subsequent data were discarded.
(§5) A metabolic model was developed, for each volunteer. For volunteers in the glucose, alanine, palmitic acid, and soybean groups, the model structure of the OBD shown in Fig. 1 was adopted, while for volunteers in the D2O group, the model structure for HDO was adopted. For each model, parameters were determined using the least squares method, using Microsoft Excel version 2007. The detailed procedures have been described previously. […]

[2] = design: method as in PMID 21947005; settings: once orally; individual volunteer; presumed value, no clear second component; from mean residence time of carbon in adipose tissue ref 41; cited from earlier work
[3] = D/H ratios in urine after oral administration of D-labelled compounds and soybean, OBD metabolic model fit; type: in vivo, human
Experimental: as §1
All D-labelled and ^13C-labelled compounds were purchased from Cambridge Isotopes, Inc. (Tewksbury). In each D-labelled molecule, hydrogen bound to carbon was uniformly replaced by D. Such D is not exchangeable to hydrogen in free body water after administration until it is metabolised to HDO, and is called non-exchangeable OBD (Nx-OBD). Exchangeable hydrogen, which was not bound to carbon, such as hydroxyl group hydrogen, was not replaced by D. In each ^13C-labelled compound, ^13C was uniformly labelled.
The D-labelled soybean was harvested three times. The harvested soybeans were boiled, freeze-dried, and then homogenised. The soy powder product was orally administered. To measure the D/H ratio, the soy powder was first immersed in drinking water, to replace exchangeable OBD (Ex-OBD), which was not bound to carbon. After the second freeze-drying process, the D/H ratio was measured using a mass spectrometer (Iso Prime 100; Elementar, Langenselbold, Germany). Buried tritium is defined as the tritium in a large biomolecule that remains in the molecule after rinsing samples with tritium-free water, despite its exchangeable position in the molecule. A fraction of buried deuterium was considered to remain in soybean powder. […] Therefore, we considered that effect of the amount of buried deuterium on the measured D/H ratio of soy powder was negligible. The hydrogen content of the soybean powders (gH/gDW) was measured using a gas chromatograph (NCH-22F; Sumika Chemical Analysis Service, Oosaka, Japan). The OBD content of the soybean powders (gOBD/gDW) were calculated from their D/H ratio and hydrogen content, and are summarised in Table 7.
as §2, §3, §4, §5

[4] = design: method as in PMID 32424291; settings: cited from earlier work; for d1, ratio of organic compounds to inorganic compounds immediately after administration: 13C-labelled compound experiments, mean ± standard deviation ref 31
[5] = intravenous injection ref 28; cited from earlier work

[2H]O[2H] [D2O]
mean half-life for the FWD compartment of the HDO models ([1]; combined group of volunteers): 240 ± 72 h | mean half-life for the FWD compartment of the HDO models ([1]; females (n = 6)): 240 ± 72 h | mean half-life for the FWD compartment of the HDO models ([1]; males (n = 3)): 240 ± 48 h | Rr, recovery ratio to the administered deuterium ([1]; all volunteers average): 0.93 | k1, transfer rate from OBD compartment to FWD compartment ([1]; all volunteers average): 0.010 day⁻¹ | k2, transfer rate from FWD compartment to OBD compartment ([1]; all volunteers average): 0.010 day⁻¹ | ka, transfer rate from DT compartment to FWD compartment ([1]; all volunteers average): 26 day⁻¹ | ke, excretion rate from FWD compartment ([1]; all volunteers average): 0.071 day⁻¹ | Rr, recovery ratio to the administered deuterium ([1]; female average): 0.93 | k1, transfer rate from OBD compartment to FWD compartment ([1]; female average): 0.011 day⁻¹ | k2, transfer rate from FWD compartment to OBD compartment ([1]; female average): 0.013 day⁻¹ | ka, transfer rate from DT compartment to FWD compartment ([1]; female average): 28 day⁻¹ | ke, excretion rate from FWD compartment ([1]; female average): 0.071 day⁻¹ | Rr, recovery ratio to the administered deuterium ([1]; individual female volunteers): 1.0 and 0.99 and 0.70 and 0.97 (2×) and 0.93 | k1, transfer rate from OBD compartment to FWD compartment ([1]; individual female volunteers): 0.0067 day⁻¹ and 0.0074 day⁻¹ and 0.019 day⁻¹ | k2, transfer rate from FWD compartment to OBD compartment ([1]; individual female volunteers): 0.016 day⁻¹ and 0.010 day⁻¹ | ka, transfer rate from DT compartment to FWD compartment ([1]; individual female volunteers): 8.9 day⁻¹ and 23 day⁻¹ and 92 day⁻¹ and 14 day⁻¹ and 6.4 day⁻¹ and 21 day⁻¹ | ke, excretion rate from FWD compartment ([1]; individual female volunteers): 0.056 day⁻¹ and 0.098 day⁻¹ and 0.081 day⁻¹ and 0.043 day⁻¹ and 0.078 day⁻¹ and 0.072 day⁻¹ | Rr, recovery ratio to the administered deuterium ([1]; individual male volunteers): 0.91 and 1.0 and 0.92 | k1, transfer rate from OBD compartment to FWD compartment ([1]; individual male volunteers): 0.0091 day⁻¹ and 0.0083 day⁻¹ | k2, transfer rate from FWD compartment to OBD compartment ([1]; individual male volunteers): 0.0092 day⁻¹ and 0.0065 day⁻¹ | ka, transfer rate from DT compartment to FWD compartment ([1]; individual male volunteers): 39 day⁻¹ and 8.6 day⁻¹ and 21 day⁻¹ | ke, excretion rate from FWD compartment ([1]; individual male volunteers): 0.059 day⁻¹ and 0.063 day⁻¹ and 0.090 day⁻¹ | Rr, recovery ratio to the administered deuterium ([1]; male average): 0.94 | k1, transfer rate from OBD compartment to FWD compartment ([1]; male average): 0.0087 day⁻¹ | k2, transfer rate from FWD compartment to OBD compartment ([1]; male average): 0.0079 day⁻¹ | ka, transfer rate from DT compartment to FWD compartment ([1]; male average): 23 day⁻¹ | ke, excretion rate from FWD compartment ([1]; male average): 0.071 day⁻¹ | k2, transfer rate from FWD compartment to OBD compartment [2]: 0.0017* d^−1

OC[C@H]1OC(O)[C@H](O)[C@@H](O)[C@@H]1O (stereo partly drawn) [D-labelled glucose]
ke, excretion rate from FWD compartment ([3]; once orally, all volunteers average): 0.073 day⁻¹ | ke, excretion rate from FWD compartment ([3]; once orally, female average): 0.067 day⁻¹ | ke, excretion rate from FWD compartment ([3]; once orally, individual female volunteers): 0.072 d^−1 (2×) and 0.081 d^−1 and 0.057 d^−1 and 0.073 d^−1 and 0.049 d^−1 | ke, excretion rate from FWD compartment ([3]; once orally, individual male volunteers): 0.085 d^−1 (2×) and 0.097 d^−1 and 0.050 d^−1 and 0.078 d^−1 | ke, excretion rate from FWD compartment ([3]; once orally, male average): 0.079 day⁻¹

CCCCCCCCCCCCCCCC(=O)O [D-labelled palmitic acid]
ke, excretion rate from FWD compartment ([3]; palmitic acid group, orally once daily for four successive days, all volunteers average): 0.070 day⁻¹ | ke, excretion rate from FWD compartment ([3]; palmitic acid group, orally once daily for four successive days, female average): 0.083 day⁻¹ | ke, excretion rate from FWD compartment ([3]; palmitic acid group, orally once daily for four successive days, individual female volunteers): 0.059 day⁻¹ and 0.064 day⁻¹ and 0.11 day⁻¹ and 0.099 day⁻¹ | ke, excretion rate from FWD compartment ([3]; palmitic acid group, orally once daily for four successive days, individual male volunteers): 0.059 day⁻¹ and 0.055 day⁻¹ and 0.078 day⁻¹ and 0.063 day⁻¹ and 0.040 day⁻¹ | ke, excretion rate from FWD compartment ([3]; palmitic acid group, orally once daily for four successive days, male average): 0.059 day⁻¹

NCC(=O)O [^13C-labelled glycine]
d1, ratio of organic compounds to inorganic compounds immediately after administration [4]: 0.29 ± 0.04

CCCCC/C=C\C/C=C\CCCCCCCC(=O)O [^13C-labelled linoleic acid]
d1, ratio of organic compounds to inorganic compounds immediately after administration [4]: 0.29 ± 0.12 | reported ratio of unsaturated fatty acids (d1) by the 13C-labelled experiment [4]: 29 ± 12%

CCCCCCCC/C=C\CCCCCCCC(=O)O [^13C-labelled oleic acid]
d1, ratio of organic compounds to inorganic compounds immediately after administration [4]: 0.35 ± 0.11 | reported ratio of unsaturated fatty acids (d1) by the 13C-labelled experiment [4]: 35 ± 11%

N[C@@H](Cc1ccccc1)C(=O)O [^13C-labelled phenylalanine]
d1, ratio of organic compounds to inorganic compounds immediately after administration [4]: 0.25 ± 0.04

O=[14C]([O-])O.[Na+] [^14C-bicarbonate]
half-life of carbon dioxide [5]: 5 min
